Results published in ChEMBL document CHEMBL4813981, “Synthesis and in vitro antibacterial activity of new aminothiazole-oximepiperidone cephalosporins” (2021).
Values after ≈ are worked out from the molar mass of the structure shown.

Assays:
Klebsiella pneumoniae [1] = experiment: Antibacterial activity against ESBLs negative Carbapenem-sensitive Klebsiella pneumonia 15-2 assessed as reduction in bacterial growth; assay type: functional
Acinetobacter baumannii [2] = experiment: Antibacterial activity against Carbapenem- resistant Acinetobacter baumannii 17-8 assessed as reduction in bacterial growth; assay type: functional
Klebsiella pneumoniae [3] = experiment: Antibacterial activity against Carbapenem- sensitive Klebsiella pneumoniae 17-5 overexpressing extended spectrum beta-lactamases assessed as reduction in bacterial growth; assay type: functional
Acinetobacter baumannii [4] = experiment: Antibacterial activity against Carbapenem- resistant Acinetobacter baumannii 17-5 assessed as reduction in bacterial growth
Klebsiella aerogenes [5] = experiment: Antibacterial activity against Enterobacter aerogenes 17-4 assessed as reduction in bacterial growth in the presence of Avibactam; assay type: functional
Enterobacter cloacae [6] = experiment: Antibacterial activity against Enterobacter cloacae 17-3 assessed as reduction in bacterial growth; assay type: functional
Klebsiella aerogenes [7] = experiment: Antibacterial activity against Enterobacter aerogenes 15-6 assessed as reduction in bacterial growth; assay type: functional
Klebsiella aerogenes [8] = experiment: Antibacterial activity against Enterobacter aerogenes 17-2 assessed as reduction in bacterial growth; assay type: functional
Acinetobacter baumannii [9] = experiment: Antibacterial activity against Carbapenem- resistant Acinetobacter baumannii 17-12 assessed as reduction in bacterial growth; assay type: functional
Klebsiella pneumoniae [10] = experiment: Antibacterial activity against Carbapenem- resistant Klebsiella pneumoniae KR 15-10 assessed as reduction in bacterial growth; assay type: functional
Escherichia coli [11] = experiment: Antibacterial activity against ESBLs positive Carbapenem-sensitive Escherichia coli 17-21 assessed as reduction in bacterial growth; assay type: functional
Klebsiella pneumoniae [12] = experiment: Antibacterial activity against Carbapenem- resistant Klebsiella pneumoniae KR 15-4 assessed as reduction in bacterial growth; assay type: functional
Klebsiella aerogenes [13] = experiment: Antibacterial activity against Enterobacter aerogenes 17-2 assessed as reduction in bacterial growth in the presence of Avibactam; assay type: functional
Klebsiella pneumoniae [14] = experiment: Antibacterial activity against ESBLs negative Carbapenem-sensitive Klebsiella pneumoniae 17-18 assessed as reduction in bacterial growth; assay type: functional
Escherichia coli [15] = experiment: Antibacterial activity against Escherichia coli ATCC 25922 assessed as reduction in bacterial growth; assay type: functional
Enterobacter cloacae [16] = experiment: Antibacterial activity against Enterobacter cloacae 17-10 assessed as reduction in bacterial growth; assay type: functional
Klebsiella pneumoniae [17] = experiment: Antibacterial activity against Carbapenem- sensitive Klebsiella pneumoniae 17-14 overexpressing extended spectrum beta-lactamases assessed as reduction in bacterial growth; assay type: functional
Klebsiella pneumoniae [18] = experiment: Antibacterial activity against Carbapenem- resistant Klebsiella pneumoniae KR 15-8 assessed as reduction in bacterial growth; assay type: functional
Enterobacter cloacae [19] = experiment: Antibacterial activity against Enterobacter cloacae 17-5 assessed as reduction in bacterial growth; assay type: functional
Klebsiella aerogenes [20] = experiment: Antibacterial activity against Enterobacter aerogenes 15-3 assessed as reduction in bacterial growth; assay type: functional
Escherichia coli [21] = experiment: Antibacterial activity against ESBLs positive Carbapenem-sensitive Escherichia coli 17-18 assessed as reduction in bacterial growth; assay type: functional
Klebsiella pneumoniae [22] = experiment: Antibacterial activity against Carbapenem- resistant Klebsiella pneumoniae KR 15-5 assessed as reduction in bacterial growth in the presence of Avibactam; assay type: functional
Escherichia coli [23] = experiment: Antibacterial activity against ESBLs positive Carbapenem-sensitive Escherichia coli 17-6 assessed as reduction in bacterial growth; assay type: functional
Acinetobacter baumannii [24] = experiment: Antibacterial activity against Carbapenem- resistant Acinetobacter baumannii 17-11 assessed as reduction in bacterial growth; assay type: functional
Acinetobacter baumannii [25] = experiment: Bactericidal activity against Carbapenem- resistant Acinetobacter baumannii 17-2 assessed as reduction in bacterial growth in the presence of avibactam; assay type: functional
Klebsiella pneumoniae [26] = experiment: Antibacterial activity against Carbapenem- sensitive Klebsiella pneumoniae 17-9 overexpressing extended spectrum beta-lactamases assessed as reduction in bacterial growth; assay type: functional
Klebsiella pneumoniae [27] = experiment: Antibacterial activity against Carbapenem- sensitive Klebsiella pneumoniae 17-6 overexpressing extended spectrum beta-lactamases assessed as reduction in bacterial growth; assay type: functional
Escherichia coli [28] = experiment: Antibacterial activity against ESBLs positive Carbapenem-sensitive Escherichia coli 17-17 assessed as reduction in bacterial growth; assay type: functional
Pseudomonas aeruginosa [29] = experiment: Antibacterial activity against Carbapenem- sensitive Pseudomonas aeruginosa 17-7 assessed as reduction in bacterial growth; assay type: functional
Enterobacter cloacae [30] = experiment: Antibacterial activity against Enterobacter cloacae 17-7 assessed as reduction in bacterial growth; assay type: functional
Klebsiella pneumoniae [31] = experiment: Antibacterial activity against Carbapenem- sensitive Klebsiella pneumoniae 17-11 overexpressing extended spectrum beta-lactamases assessed as reduction in bacterial growth; assay type: functional
Klebsiella pneumoniae [32] = experiment: Antibacterial activity against Carbapenem- resistant Klebsiella pneumoniae KR 15-12 assessed as reduction in bacterial growth; assay type: functional
Escherichia coli [33] = experiment: Antibacterial activity against ESBLs positive Carbapenem-sensitive Escherichia coli 17-5 assessed as reduction in bacterial growth; assay type: functional
Klebsiella pneumoniae [34] = experiment: Bactericidal activity against Klebsiella pneumoniae ATCC BAA-1705 assessed as reduction in bacterial growth in the presence of avibactam; assay type: functional
Pseudomonas aeruginosa [35] = experiment: Antibacterial activity against Carbapenem- sensitive Pseudomonas aeruginosa 17-22 assessed as reduction in bacterial growth; assay type: functional
Pseudomonas aeruginosa [36] = experiment: Antibacterial activity against Carbapenem- sensitive Pseudomonas aeruginosa 17-10 assessed as reduction in bacterial growth; assay type: functional
Escherichia coli [37] = experiment: Antibacterial activity against ESBLs positive Carbapenem-sensitive Escherichia coli 17-10 assessed as reduction in bacterial growth; assay type: functional
Klebsiella aerogenes [38] = experiment: Antibacterial activity against Enterobacter aerogenes 15-7 assessed as reduction in bacterial growth; assay type: functional
Pseudomonas aeruginosa [39] = experiment: Bactericidal activity against carbapenem-sensitive Pseudomonas aeruginosa 17-7 assessed as reduction in bacterial growth in the presence of avibactam; assay type: functional
Klebsiella aerogenes [40] = experiment: Antibacterial activity against Enterobacter aerogenes 17-1 assessed as reduction in bacterial growth in the presence of Avibactam; assay type: functional
Escherichia coli [41] = experiment: Antibacterial activity against Escherichia coli ATCC 35218 assessed as reduction in bacterial growth; assay type: functional
Escherichia coli [42] = experiment: Antibacterial activity against ESBLs positive Carbapenem-sensitive Escherichia coli 17-2 assessed as reduction in bacterial growth; assay type: functional
Escherichia coli [43] = experiment: Antibacterial activity against ESBLs negative Carbapenem-sensitive Escherichia coli 17-7 assessed as reduction in bacterial growth; assay type: functional
Klebsiella aerogenes [44] = experiment: Bactericidal activity against Enterobacter aerogenes 15-4 assessed as reduction in bacterial growth; assay type: functional
Pseudomonas aeruginosa [45] = experiment: Bactericidal activity against carbapenem-sensitive Pseudomonas aeruginosa 17-26 assessed as reduction in bacterial growth in the presence of avibactam; assay type: functional
Enterobacter cloacae [46] = experiment: Antibacterial activity against Enterobacter cloacae 17-8 assessed as reduction in bacterial growth; assay type: functional
Escherichia coli [47] = experiment: Antibacterial activity against ESBLs negative Carbapenem-sensitive Escherichia coli 17-7 assessed as reduction in bacterial growth in the presence of Avibactam; assay type: functional
Escherichia coli [48] = experiment: Bactericidal activity against ESBLs positive Carbapenem-sensitive Escherichia coli 17-3 assessed as reduction in bacterial growth; assay type: functional
Escherichia coli [49] = experiment: Antibacterial activity against ESBLs positive Carbapenem-sensitive Escherichia coli 17-22 assessed as reduction in bacterial growth in the presence of Avibactam; assay type: functional
Escherichia coli [50] = experiment: Antibacterial activity against Escherichia coli NCTC 13353 assessed as reduction in bacterial growth; assay type: functional
Acinetobacter baumannii [51] = experiment: Bactericidal activity against Carbapenem- resistant Acinetobacter baumannii 17-11 assessed as reduction in bacterial growth in the presence of avibactam; assay type: functional
Escherichia coli [52] = experiment: Antibacterial activity against ESBLs positive Carbapenem-sensitive Escherichia coli 17-3 assessed as reduction in bacterial growth; assay type: functional

CC(C)(O/N=C(\C(=O)N[C@@H]1C(=O)N2C(C(=O)[O-])=C(C[n+]3ccccc3)CS[C@H]12)c1csc(N)n1)C(=O)O [CEFTAZIDIME]
MIC (Klebsiella pneumoniae [1]): 0.125 µg/mL (≈ 0.229 µM) | MIC (Acinetobacter baumannii [2]): > 64 µg/mL | MIC (Klebsiella pneumoniae [3]): 1 µg/mL (≈ 1.83 µM) | MIC (Acinetobacter baumannii [4]): > 64 µg/mL | MIC (Klebsiella aerogenes [5]): 0.5 µg/mL | MIC (Enterobacter cloacae [6]): 1 µg/mL (≈ 1.83 µM) | MIC (Klebsiella aerogenes [7]): 8 µg/mL (≈ 14.6 µM) | MIC (Klebsiella aerogenes [8]): 16 µg/mL (≈ 29.3 µM) | MIC (Acinetobacter baumannii [9]): 64 µg/mL (≈ 117 µM) | MIC (Klebsiella pneumoniae [10]): > 64 µg/mL | MIC (Escherichia coli [11]): 8 µg/mL (≈ 14.6 µM) | MIC (Klebsiella pneumoniae [12]): > 64 µg/mL | MIC (Klebsiella aerogenes [13]): 0.5 µg/mL | MIC (Klebsiella pneumoniae [14]): 0.125 µg/mL (≈ 0.229 µM) | MIC (Escherichia coli [15]): 0.06 µg/mL (≈ 0.11 µM) | MIC (Enterobacter cloacae [16]): 1 µg/mL (≈ 1.83 µM) | MIC (Klebsiella pneumoniae [17]): 2 µg/mL (≈ 3.66 µM) | MIC (Klebsiella pneumoniae [18]): > 64 µg/mL | MIC (Enterobacter cloacae [19]): 64 µg/mL (≈ 117 µM) | MIC (Klebsiella aerogenes [20]): > 64 µg/mL | MIC (Escherichia coli [21]): 2 µg/mL (≈ 3.66 µM) | MIC (Klebsiella pneumoniae [22]): 2 µg/mL | MIC (Escherichia coli [23]): 32 µg/mL (≈ 58.5 µM) | MIC (Acinetobacter baumannii [24]): 32 µg/mL (≈ 58.5 µM) | MBC (Acinetobacter baumannii [25]): 8 µg/mL | MIC (Klebsiella pneumoniae [26]): 64 µg/mL (≈ 117 µM) | MIC (Klebsiella pneumoniae [27]): 8 µg/mL (≈ 14.6 µM) | MIC (Escherichia coli [28]): 32 µg/mL (≈ 58.5 µM) | MIC (Pseudomonas aeruginosa [29]): 0.125 µg/mL (≈ 0.229 µM) | MIC (Enterobacter cloacae [30]): > 64 µg/mL | MIC (Klebsiella pneumoniae [31]): 8 µg/mL (≈ 14.6 µM) | MIC (Klebsiella pneumoniae [32]): 64 µg/mL (≈ 117 µM) | MIC (Escherichia coli [33]): 4 µg/mL (≈ 7.32 µM) | MBC (Klebsiella pneumoniae [34]): 8 µg/mL | MIC (Pseudomonas aeruginosa [35]): 0.5 µg/mL (≈ 0.915 µM) | MIC (Pseudomonas aeruginosa [36]): 8 µg/mL (≈ 14.6 µM) | MIC (Escherichia coli [37]): 4 µg/mL (≈ 7.32 µM) | MIC (Klebsiella aerogenes [38]): 16 µg/mL (≈ 29.3 µM) | MBC (Pseudomonas aeruginosa [39]): 0.25 µg/mL | MIC (Klebsiella aerogenes [40]): 1 µg/mL | MIC (Escherichia coli [41]): 0.06 µg/mL (≈ 0.11 µM) | MIC (Escherichia coli [42]): 2 µg/mL (≈ 3.66 µM) | MIC (Escherichia coli [43]): 0.125 µg/mL (≈ 0.229 µM) | MBC (Klebsiella aerogenes [44]): 0.5 µg/mL (≈ 0.915 µM) | MBC (Pseudomonas aeruginosa [45]): 2 µg/mL | MIC (Enterobacter cloacae [46]): 0.125 µg/mL (≈ 0.229 µM) | MIC (Escherichia coli [47]): 0.125 µg/mL | MBC (Escherichia coli [48]): 2 µg/mL (≈ 3.66 µM) | MIC (Escherichia coli [49]): 1 µg/mL | MIC (Escherichia coli [50]): 64 µg/mL (≈ 117 µM) | MBC (Acinetobacter baumannii [51]): 32 µg/mL | MIC (Escherichia coli [52]): 2 µg/mL (≈ 3.66 µM)
